Assay results published in US9440952B2, “Compounds inhibiting leucine-rich repeat kinase enzyme activity” (Merck Sharp & Dohme Corp., priority 2013, dated 2016).

biological target: T1, LRRK2(G2019S mutation, GST-LRRK2(amino acids 970-2527)) (Homo sapiens, UniProt Q5S007, G2019S); experiment: LRRK2 Km ATP LanthaScreen Assay; type: biochemical; conditions: Km ATP LanthaScreen Assay; LRRK2 G2019S; mean IC50 values; read-out: LRRK2 IC50
T1 construct: GST-LRRK2(amino acids 970-2527); GST (N); purchased Life Technologies Corporation
Description: Unless otherwise noted, all LRRK2 IC50 data presented in tables refers to the LRRK2 Km ATP LanthaScreen™ Assay that is described in the Biological Assay section.
The data presented for the 5 mM and Km ATP LanthaScreen™ Assay represents mean IC50 values based on several test results and may have reasonable. deviations depending on the specific conditions and reagents used. Reagents for the LRRK2 5 mM and Km ATP LanthaScreen™ Assay were purchased from Life Technologies Corporation.
Results are analysed using Assay Data Analyzer.

T1 sequence (Q5S007 970-2527 G2019S): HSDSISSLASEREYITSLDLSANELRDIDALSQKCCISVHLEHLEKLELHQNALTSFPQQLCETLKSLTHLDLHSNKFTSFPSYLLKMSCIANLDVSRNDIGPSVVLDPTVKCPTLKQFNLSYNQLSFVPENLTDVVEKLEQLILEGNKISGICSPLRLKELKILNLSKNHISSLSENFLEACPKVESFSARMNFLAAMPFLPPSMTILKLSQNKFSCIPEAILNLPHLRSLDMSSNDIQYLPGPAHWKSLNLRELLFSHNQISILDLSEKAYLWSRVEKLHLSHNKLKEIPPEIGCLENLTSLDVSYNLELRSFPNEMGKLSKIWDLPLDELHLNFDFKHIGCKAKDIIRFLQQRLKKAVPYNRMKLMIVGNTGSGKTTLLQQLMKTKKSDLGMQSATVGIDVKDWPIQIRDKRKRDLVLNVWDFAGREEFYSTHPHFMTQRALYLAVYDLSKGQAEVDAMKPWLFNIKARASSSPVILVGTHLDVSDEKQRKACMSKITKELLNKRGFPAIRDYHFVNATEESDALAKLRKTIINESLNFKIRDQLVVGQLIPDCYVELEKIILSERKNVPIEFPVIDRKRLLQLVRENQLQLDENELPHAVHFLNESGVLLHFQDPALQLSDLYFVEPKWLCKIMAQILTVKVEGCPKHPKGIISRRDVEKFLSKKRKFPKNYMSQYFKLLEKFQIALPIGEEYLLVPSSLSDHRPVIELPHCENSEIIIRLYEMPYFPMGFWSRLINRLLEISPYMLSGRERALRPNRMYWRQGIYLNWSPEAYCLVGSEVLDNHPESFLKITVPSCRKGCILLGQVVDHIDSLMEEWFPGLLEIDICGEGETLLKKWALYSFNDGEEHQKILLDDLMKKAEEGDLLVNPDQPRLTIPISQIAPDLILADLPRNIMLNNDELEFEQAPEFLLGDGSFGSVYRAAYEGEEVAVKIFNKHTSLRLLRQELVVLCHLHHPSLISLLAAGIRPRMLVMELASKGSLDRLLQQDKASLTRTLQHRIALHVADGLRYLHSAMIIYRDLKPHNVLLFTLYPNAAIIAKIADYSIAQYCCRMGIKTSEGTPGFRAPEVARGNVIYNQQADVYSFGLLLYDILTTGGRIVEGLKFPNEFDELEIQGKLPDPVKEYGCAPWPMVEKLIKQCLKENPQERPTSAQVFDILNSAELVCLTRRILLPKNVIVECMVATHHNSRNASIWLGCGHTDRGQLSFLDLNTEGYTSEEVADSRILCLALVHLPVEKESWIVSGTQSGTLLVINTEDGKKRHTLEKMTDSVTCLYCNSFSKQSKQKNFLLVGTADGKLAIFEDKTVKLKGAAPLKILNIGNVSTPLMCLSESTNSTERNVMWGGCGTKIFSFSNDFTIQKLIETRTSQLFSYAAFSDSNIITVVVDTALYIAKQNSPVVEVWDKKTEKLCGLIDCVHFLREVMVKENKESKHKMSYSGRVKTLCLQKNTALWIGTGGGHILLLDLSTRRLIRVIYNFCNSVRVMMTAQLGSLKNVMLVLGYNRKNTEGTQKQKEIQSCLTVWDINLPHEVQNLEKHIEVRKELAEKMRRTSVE

SMILES | IC50
c1ccc2c(-c3ccnc(N4CCCCCC4)c3)n[nH]c2c1 [Example 2] | 76 nM
COCCN(C)c1cc(-c2n[nH]c3ccccc23)ccn1 [Example 3] | 48 nM
COCCNc1cc(-c2n[nH]c3ccccc23)ccn1 [Example 4] | 46 nM
c1ccc2c(-c3ccnc(N4CCCC4)c3)n[nH]c2c1 [Example 5] | 17 nM
c1ccc2c(-c3ccnc(N4CCCCC4)c3)n[nH]c2c1 [Example 6] | 16 nM
c1ccc2c(c1)CN(c1cc(-c3n[nH]c4ccccc34)ccn1)C2 [Example 7] | 87 nM
CN1CCN(c2cc(-c3n[nH]c4ccccc34)ccn2)CC1 [Example 8] | 42 nM
OCCNc1cc(-c2n[nH]c3ccccc23)ccn1 [Example 9] | 54 nM
OC1CCN(c2cc(-c3n[nH]c4ccccc34)ccn2)CC1 [Example 10] | 24 nM
c1ccc(N2CCN(c3cc(-c4n[nH]c5ccccc45)ccn3)CC2)cc1 [Example 11] | 49 nM
c1ccc2c(-c3ccnc(N4CCSCC4)c3)n[nH]c2c1 [Example 12] | 46 nM
c1ccc(N2CCN(c3cc(-c4n[nH]c5ccccc45)ccn3)CC2)nc1 [Example 13] | 22 nM
N#CC1(c2ccccc2)CCN(c2cc(-c3n[nH]c4ccccc34)ccn2)CC1 [Example 14] | 67 nM
c1ccc2c(-c3ccnc(N4CCC5(CC4)OCCO5)c3)n[nH]c2c1 [Example 15, 8-[4-(1H-indazol-3-yl)pyridin-2-yl]-1,4-dioxa-8-azaspiro[4.5]decane] | 36 nM
c1ccc2c(-c3ccnc(N4CCC(c5ccncc5)CC4)c3)n[nH]c2c1 [Example 16] | 186 nM
N#CC1(c2ccccn2)CCN(c2cc(-c3n[nH]c4ccccc34)ccn2)CC1 [Example 17] | 16 nM
CS(=O)(=O)N1CCN(c2cc(-c3n[nH]c4ccccc34)ccn2)CC1 [Example 18] | 17 nM
c1ccc2c(-c3ccnc(N4CCN(Cc5ccncc5)CC4)c3)n[nH]c2c1 [Example 19] | 18 nM
C1=CC(c2noc(C3CCN(c4cc(-c5n[nH]c6ccccc56)ccn4)CC3)n2)=CCC1 [Example 20] | 27 nM
FC1CCCN(c2cc(-c3n[nH]c4ccccc34)ccn2)C1 (stereo not shown) [Example 21] | 22 nM
c1ccc(C2CCN(c3cc(-c4n[nH]c5ccccc45)ccn3)CC2)nc1 [Example 22] | 20 nM
OC1(c2ccccn2)CCN(c2cc(-c3n[nH]c4ccccc34)ccn2)CC1 [Example 23] | 20 nM
c1cncc(N2CCN(c3cc(-c4n[nH]c5ccccc45)ccn3)CC2)c1 [Example 24] | 18 nM
OC1(c2ccncc2)CCN(c2cc(-c3n[nH]c4ccccc34)ccn2)CC1 [Example 25] | 21 nM
OC1(c2cccnc2)CCN(c2cc(-c3n[nH]c4ccccc34)ccn2)CC1 [Example 26] | 19 nM

SMILES | IC50
c1ccc2c(-c3ccnc(N4CCC(N5CCOCC5)CC4)c3)n[nH]c2c1 [Example 27] | 32 nM
FC1(F)CCN(c2cc(-c3n[nH]c4ccccc34)ccn2)CC1 [Example 28] | 57 nM
c1ccc2c(-c3ccnc(N4CCC(N5CCCC5)CC4)c3)n[nH]c2c1 [Example 29] | 45 nM
CN(C)c1cc(-c2n[nH]c3ccccc23)ccn1 [Example 30] | 33 nM
CC1CN(c2cc(-c3n[nH]c4ccccc34)ccn2)CC(C)O1 (stereo not shown) [Example 31] | 12 nM
CN1CCCC(CN(C)c2cc(-c3n[nH]c4ccccc34)ccn2)C1 (stereo not shown) [Example 32] | 75 nM
c1ccc2c(-c3ccnc(NC4COC4)c3)n[nH]c2c1 [Example 33] | 3510 nM
CN1CCC2(CCN(c3cc(-c4n[nH]c5ccccc45)ccn3)C2)C1 (stereo not shown) [Example 34] | 22 nM
CN(C)[C@@H]1CCN(c2cc(-c3n[nH]c4ccccc34)ccn2)C1 [Example 35] | 28 nM
OCC1CN(c2cc(-c3n[nH]c4ccccc34)ccn2)CCCO1 (stereo not shown) [Example 37] | 64 nM
F[C@H]1COC[C@@H]1Nc1cc(-c2n[nH]c3ccccc23)ccn1 [Example 38] | 79 nM
c1ccc2c(-c3ccnc(N4CCC(CN5CCOCC5)CC4)c3)n[nH]c2c1 [Example 40] | 28 nM
O=C(O)[C@H]1CCCN(c2cc(-c3n[nH]c4ccccc34)ccn2)C1 [Example 41] | 24 nM
c1ccc2c(-c3ccnc(NCCCn4ccnc4)c3)n[nH]c2c1 [Example 42] | 31 nM
CN(C)CC1CN(c2cc(-c3n[nH]c4ccccc34)ccn2)CCO1 (stereo not shown) [Example 43] | 19 nM
O=C1CCC(CNc2cc(-c3n[nH]c4ccccc34)ccn2)N1 (stereo not shown) [Example 44] | 26 nM
CN(C)CCC(Nc1cc(-c2n[nH]c3ccccc23)ccn1)c1ccccn1 (stereo not shown) [Example 45] | 72 nM
CN1CCN(c2cc(-c3n[nH]c4ccccc34)ccn2)CC1=O [Example 46] | 21 nM
CN1CCC(O)(CNc2cc(-c3n[nH]c4ccccc34)ccn2)CC1 [Example 47] | 63 nM
O=C1CN(c2cc(-c3n[nH]c4ccccc34)ccn2)CCCN1 [Example 48] | 54 nM
O=C1CN(c2cc(-c3n[nH]c4ccccc34)ccn2)CCN1 [Example 49] | 23 nM
CN1CCC(CN(C)c2cc(-c3n[nH]c4ccccc34)ccn2)CC1 [Example 50] | 40 nM
C[C@@H]1C[C@@H](O)CN1c1cc(-c2n[nH]c3ccccc23)ccn1 [Example 51] | 33 nM
O=C(O)[C@@H]1CCCN(c2cc(-c3n[nH]c4ccccc34)ccn2)C1 [Example 52] | 31 nM
c1ccc2c(-c3ccnc(N4CCN(CCCN5CCOCC5)CC4)c3)n[nH]c2c1 [Example 53] | 18 nM

SMILES | IC50
CN1CCC(CNc2cc(-c3n[nH]c4ccccc34)ccn2)C1 (stereo not shown) [Example 54] | 47 nM
CN1CC=C2CN(c3cc(-c4n[nH]c5ccccc45)ccn3)CC21 (stereo not shown) [Example 55] | 14 nM
CN(C)CC1(O)CCN(c2cc(-c3n[nH]c4ccccc34)ccn2)CC1 [Example 56] | 25 nM
O=C(CN1CCN(c2cc(-c3n[nH]c4ccccc34)ccn2)CC1)N1CCOCC1 [Example 57] | 6.1 nM
OCCOCCNc1cc(-c2n[nH]c3ccccc23)ccn1 [Example 58] | 51 nM
c1ccc2c(-c3ccnc(N4Cc5cncnc5C4)c3)n[nH]c2c1 [Example 59] | 37 nM
CC1=NC2(CCCN(c3cc(-c4n[nH]c5ccccc45)ccn3)C2)C(=O)N1 (stereo not shown) [Example 60] | 202 nM
O=C1CCCC2(CCN(c3cc(-c4n[nH]c5ccccc45)ccn3)CC2)N1 [Example 61] | 14 nM
FC1CCN(CCCNc2cc(-c3n[nH]c4ccccc34)ccn2)C1 (stereo not shown) [Example 62] | 46 nM
c1ccc2c(-c3ccnc(N4CCC5OCCC54)c3)n[nH]c2c1 (stereo not shown) [Example 63] | 40 nM
c1ccc2c(-c3ccnc(NCCn4ccnc4)c3)n[nH]c2c1 [Example 64] | 35 nM
CN(C)C(=O)CN1CCN(c2cc(-c3n[nH]c4ccccc34)ccn2)CC1 [Example 65] | 6.8 nM
OCCC1CN(c2cc(-c3n[nH]c4ccccc34)ccn2)CCO1 (stereo not shown) [Example 66] | 15 nM
COC1CN(c2cc(-c3n[nH]c4ccccc34)ccn2)C1 [Example 67] | 31 nM
CN1CCC(Nc2cc(-c3n[nH]c4ccccc34)ccn2)C1=O (stereo not shown) [Example 68] | 108 nM
CN(CC1CCC(=O)N1)c1cc(-c2n[nH]c3ccccc23)ccn1 (stereo not shown) [Example 69] | 75 nM
NC(=O)C1CCCN(c2cc(-c3n[nH]c4ccccc34)ccn2)C1 (stereo not shown) [Example 71] | 16 nM
O=C1CCN(c2cc(-c3n[nH]c4ccccc34)ccn2)CCN1 [Example 72] | 57 nM
c1ccc2c(-c3ccnc(NCCN4CCOCC4)c3)n[nH]c2c1 [Example 73] | 35 nM
c1ccc2c(-c3ccnc(NC4CCCOC4)c3)n[nH]c2c1 (stereo not shown) [Example 74] | 57 nM
CCN(CC)CCOc1ccc2[nH]nc(-c3ccnc(N4CCOCC4)c3)c2c1 [Example 80] | 37 nM
FC(F)=CCCOc1ccc2[nH]nc(-c3ccnc(N4CCOCC4)c3)c2c1 [Example 81] | 4.8 nM
c1cc(-c2n[nH]c3ccc(OCCN4CCOCC4)cc23)cc(N2CCOCC2)n1 [Example 82] | 4.7 nM
c1cc(-c2n[nH]c3ccc(OCC4CCCO4)cc23)cc(N2CCOCC2)n1 (stereo not shown) [Example 83] | 5.4 nM
CC(C)COc1ccc2[nH]nc(-c3ccnc(N4CCOCC4)c3)c2c1 [Example 84] | 5.9 nM

same assay, conditions: Km ATP LanthaScreen; mean IC50 of several tests; read-out: LRRK2 IC50

SMILES | IC50
COc1ccc(-c2ccc3[nH]nc(-c4ccnc(N5CCOCC5)c4)c3c2)cn1 [Ex 329] | 14 nM
COc1ncnc(C)c1-c1ccc2[nH]nc(-c3ccnc(N4CCOCC4)c3)c2c1 [Ex 331] | 59 nM
Cn1cnnc1-c1ccc2[nH]nc(-c3ccnc(N4CCOCC4)c3)c2c1 [Ex 341] | 1.4 nM
Cc1nnc(-c2ccc3[nH]nc(-c4ccnc(N5CCOCC5)c4)c3c2)o1 [Ex 342] | 0.61 nM
Cn1cc(-c2cc3c(-c4ccnc(N5CCOCC5)c4)n[nH]c3cc2F)cn1 [Ex 352] | 12 nM
Cn1cc(-c2cc3c(-c4ccnc(N5CC(F)C5)c4)n[nH]c3cc2F)cn1 [Ex 353] | 4.6 nM
CCOc1nccnc1-c1ccc2[nH]nc(-c3ccnc(N4CCOCC4)c3)c2c1 [Ex 390] | 1.6 nM
c1ccc2c(-c3ccnc(N4CCOCC4)c3)n[nH]c2c1 [Example 1] | 16 nM
c1ccc2c(-c3ccnc(N4CCNCC4)c3)n[nH]c2c1 [Example 75] | 80 nM
O=C1CCN(c2cc(-c3n[nH]c4ccccc34)ccn2)CC1 [Example 76] | 45 nM
Brc1ccc2[nH]nc(-c3ccnc(N4CCOCC4)c3)c2c1 [Example 77] | 11 nM
Oc1ccc2[nH]nc(-c3ccnc(N4CCOCC4)c3)c2c1 [Example 78] | 5.3 nM
COc1ccc2[nH]nc(-c3ccnc(N4CCOCC4)c3)c2c1 [Example 79] | 7.4 nM
